# According to patent US10072003B2, “Tetrahydronaphthyridine derivatives as mGluR2-negative allosteric modulators, compositions, and their use” (Merck Sharp & Dohme Corp., priority 2014, dated 2018):
# Target: recombinant human mGluR2 (Homo sapiens (Human), UniProt Q14416)
# Assay: FLIPR Ca2+ mobilization antagonist assay in CHO dhfr- cells expressing human mGluR2 and Gα16
# Type: cell-based
# Conditions: antagonist response after addition of 2,500 nM glutamate, Fluo-4 AM, FLIPR384
# Procedure, shortened: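 CHO dhfr- cells stably co-expressing human mGluR2 and Gα16, Fluo-4 AM loaded, preincubated with compound, then challenged with 2,500 nM glutamate; Ca2+ response read by FLIPR. Maximum calcium response vs concentration fitted to four-parameter logistic for IC50.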
# Sequence of recombinant human mGluR2 (Q14416 19-872): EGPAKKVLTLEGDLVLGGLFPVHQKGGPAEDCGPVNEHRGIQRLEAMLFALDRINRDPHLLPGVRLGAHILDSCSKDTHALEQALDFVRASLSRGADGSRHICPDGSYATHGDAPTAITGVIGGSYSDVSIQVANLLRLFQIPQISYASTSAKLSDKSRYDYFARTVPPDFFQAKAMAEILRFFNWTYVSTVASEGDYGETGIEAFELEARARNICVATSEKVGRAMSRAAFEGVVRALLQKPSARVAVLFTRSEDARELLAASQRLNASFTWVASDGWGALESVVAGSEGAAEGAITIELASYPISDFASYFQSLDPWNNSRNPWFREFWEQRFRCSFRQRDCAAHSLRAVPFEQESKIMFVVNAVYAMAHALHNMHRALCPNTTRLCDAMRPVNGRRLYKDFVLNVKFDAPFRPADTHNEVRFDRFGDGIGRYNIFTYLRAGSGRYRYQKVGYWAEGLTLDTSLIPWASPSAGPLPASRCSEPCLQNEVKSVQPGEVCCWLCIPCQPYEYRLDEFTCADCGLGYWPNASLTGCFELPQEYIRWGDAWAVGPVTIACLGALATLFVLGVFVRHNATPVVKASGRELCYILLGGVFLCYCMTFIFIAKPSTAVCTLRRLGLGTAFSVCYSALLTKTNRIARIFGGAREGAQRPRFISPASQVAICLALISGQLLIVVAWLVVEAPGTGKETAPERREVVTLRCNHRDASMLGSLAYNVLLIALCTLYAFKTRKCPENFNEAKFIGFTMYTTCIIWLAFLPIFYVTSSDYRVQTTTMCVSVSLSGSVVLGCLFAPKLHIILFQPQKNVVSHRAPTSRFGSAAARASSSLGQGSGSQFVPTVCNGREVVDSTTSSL
row,SMILES,IC50
1,"N#Cc1cnn(-c2cc(C(N)=O)nc3c2CCN(Cc2ccnc(C(F)(F)F)c2)C3)c1 [Example 2-25, 4-(4-cyano-1H-pyrazol-1-yl)-7-{[2-(trifluoromethyl)pyridin-4-yl]methyl}-5,6,7,8-tetrahydro-1,7-naphthyridine-2-carboxamide]",40.9 nM
2,"Cc1conc1CN1CCc2c(-c3ccc(F)cc3F)cc(C(N)=O)nc2C1 [Example 2-26, 4-(2,4-difluorophenyl)-7-[(4-methylisoxazol-3-yl)methyl]-5,6,7,8-tetrahydro-1,7-naphthyridine-2-carboxamide]",13.1 nM
3,"NC(=O)c1cc(-c2cc(C3CC3)ns2)c2c(n1)CN(Cc1ccnc(OC(F)F)c1)CC2 [Example 2-27, 4-(3-cyclopropylisothiazol-5-yl)-7-{[2-(difluoromethoxy)pyridin-4-yl]methyl}-5,6,7,8-tetrahydro-1,7-naphthyridine-2-carboxamide]",23 nM
4,"CC1(C)CCC(c2cc(C(N)=O)nc3c2CCN(Cc2ccnc(C(F)(F)F)c2)C3)CC1 [Example 4-1, 4-(4,4-dimethylcyclohexyl)-7-((2-(trifluoromethyl)pyridin-4-yl)methyl)-5,6,7,8-tetrahydro-1,7-naphthyridine-2-carboxamide]",117 nM
5,"NC(=O)c1cc(C2=CCC3(CC2)CC3)c2c(n1)CN(Cc1ccnc(C(F)(F)F)c1)CC2 [Example 4-2, 4-spiro[2.5]oct-5-en-6-yl-7-{[2-(trifluoromethyl)pyridin-4-yl]methyl}-5,6,7,8-tetrahydro-1,7-naphthyridine-2-carboxamide]",49.7 nM
6,"Cc1cn(-c2cc(C(N)=O)nc3c2CCN(Cc2ccnc(C(F)(F)F)c2)C3)cn1 [Example 5-1, 4-(4-methyl-1H-imidazol-1-yl)-7-((2-(trifluoromethyl)pyridin-4-yl)methyl)-5,6,7,8-tetrahydro-1,7-naphthyridine-2-carboxamide]",115 nM
7,"C[C@@H]1CN(c2cc(C(N)=O)nc3c2CCN(Cc2ccnc(C(F)(F)F)c2)C3)CCO1 [Example 5-2, (R)-4-(2-methylmorpholino)-7-((2-(trifluoromethyl)pyridin-4-yl)methyl)-5,6,7,8-tetrahydro-1,7-naphthyridine-2-carboxamide]",79.1 nM
8,"COc1cc(CN2CCc3c(N4CCC(F)(F)CC4)cc(C(N)=O)nc3C2)ccn1 [Example 5-3, 4-(4,4-difluoropiperidin-1-yl)-7-[(2-methoxypyridin-4-yl)methyl]-5,6,7,8-tetrahydro-1,7-naphthyridine-2-carboxamide]",41 nM
9,"NC(=O)c1cc(N2CCCC3(CC3)C2)c2c(n1)CN(Cc1ccnc(C(F)(F)F)c1)CC2 [Example 5-4, 4-(5-azaspiro[2.5]oct-5-yl)-7-{[2-(trifluoromethyl)pyridin-4-yl]methyl}-5,6,7,8-tetrahydro-1,7-naphthyridine-2-carboxamide]",29 nM
10,"Cc1cn(-c2cc(C(N)=O)nc3c2CCN(Cc2ccnc(C(F)(F)F)c2)C3)nc1C [Example 5-7, 4-(3,4-dimethyl-1H-pyrazol-1-yl)-7-{[2-(trifluoromethyl)pyridin-4-yl]methyl}-5,6,7,8-tetrahydro-1,7-naphthyridine-2-carboxamide]",42.7 nM
11,"COc1cnn(-c2cc(C(N)=O)nc3c2CCN(Cc2ccnc(C(F)(F)F)c2)C3)c1 [Example 5-8, 4-(4-methoxy-1H-pyrazol-1-yl)-7-{[2-(trifluoromethyl)pyridin-4-yl]methyl}-5,6,7,8-tetrahydro-1,7-naphthyridine-2-carboxamide]",88.7 nM
12,"NC(=O)c1cc(-n2cc(C(F)(F)F)cn2)c2c(n1)CN(Cc1ccnc(C(F)(F)F)c1)CC2 [Example 5-10, 4-[4-(trifluoromethyl)-1H-pyrazol-1-yl]-7-{[2-(trifluoromethyl)pyridin-4-yl]methyl}-5,6,7,8-tetrahydro-1,7-naphthyridine-2-carboxamide]",32 nM
13,"NC(=O)c1cc(-c2ccc(Cl)cn2)c2c(n1)CN(Cc1ccnc(C(F)(F)F)c1)CC2 [Example 6-1, 4-(5-chloropyridin-2-yl)-7-((2-(trifluoromethyl)pyridin-4-yl)methyl)-5,6,7,8-tetrahydro-1,7-naphthyridine-2-carboxamide]",11.7 nM
14,"Cc1csc(-c2cc(C(N)=O)nc3c2CCN(Cc2ccnc(C(F)(F)F)c2)C3)n1 [Example 6-2, 4-(4-methyl-1,3-thiazol-2-yl)-7-{[2-(trifluoromethyl)pyridin-4-yl]methyl}-5,6,7,8-tetrahydro-1,7-naphthyridine-2-carboxamide]",1150 nM
15,"Cc1ncc(-c2cc(C(N)=O)nc3c2CCN(Cc2ccnc(OC(F)F)c2)C3)s1 [Example 6-3, 7-{[2-(difluoromethoxy)pyridin-4-yl]methyl}-4-(2-methyl-1,3-thiazol-5-yl)-5,6,7,8-tetrahydro-1,7-naphthyridine-2-carboxamide]",18.6 nM
16,"Cc1ncc(-c2cc(C(N)=O)nc3c2CCN(Cc2ccnn2C)C3)s1 [Example 6-4, 7-[(1-methyl-1H-pyrazol-5-yl)methyl]-4-(2-methyl-1,3-thiazol-5-yl)-5,6,7,8-tetrahydro-1,7-naphthyridine-2-carboxamide]",119 nM

# Other lines, results leading:
row,IC50,SMILES
1,27.7 nM,"NC(=O)c1cc(-c2ccc(Cl)cc2F)c2c(n1)CN(Cc1ncon1)CC2 [Example 9-1, 7-((1,2,4-oxadiazol-3-yl)methyl)-4-(4-chloro-2-fluorophenyl)-5,6,7,8-tetrahydro-1,7-naphthyridine-2-carboxamide]"
2,9.7 nM,"Cc1nc(CN2CCc3c(-c4ccc(Cl)cc4F)cc(C(N)=O)nc3C2)no1 [Example 9-2, 4-(4-chloro-2-fluorophenyl)-7-[(5-methyl-1,2,4-oxadiazol-3-yl)methyl]-5,6,7,8-tetrahydro-1,7-naphthyridine-2-carboxamide]"
3,14.2 nM,"COc1nccc(CN2CCc3c(-c4ccc(Cl)cc4F)cc(C(N)=O)nc3C2)n1 [Example 9-3, 4-(4-chloro-2-fluorophenyl)-7-[(2-methoxypyrimidin-4-yl)methyl]-5,6,7,8-tetrahydro-1,7-naphthyridine-2-carboxamide]"
4,23.9 nM,"Cn1ncnc1CN1CCc2c(-c3ccc(Cl)cc3F)cc(C(N)=O)nc2C1 [Example 9-4, 4-(4-chloro-2-fluorophenyl)-7-[(1-methyl-1H-1,2,4-triazol-5-yl)methyl]-5,6,7,8-tetrahydro-1,7-naphthyridine-2-carboxamide]"
5,12.7 nM,"Cc1noc(CN2CCc3c(-c4ccc(Cl)cc4F)cc(C(N)=O)nc3C2)n1 [Example 9-5, 4-(4-chloro-2-fluorophenyl)-7-[(3-methyl-1,2,4-oxadiazol-5-yl)methyl]-5,6,7,8-tetrahydro-1,7-naphthyridine-2-carboxamide]"
6,8 nM,"CC(C)c1noc(CN2CCc3c(-c4ccc(Cl)cc4F)cc(C(N)=O)nc3C2)n1 [Example 9-6, 4-(4-chloro-2-fluorophenyl)-7-{[3-(1-methylethyl)-1,2,4-oxadiazol-5-yl]methyl}-5,6,7,8-tetrahydro-1,7-naphthyridine-2-carboxamide]"
7,11.7 nM,"COc1ccnc(CN2CCc3c(-c4ccc(Cl)cc4F)cc(C(N)=O)nc3C2)n1 [Example 9-7, 4-(4-chloro-2-fluorophenyl)-7-[(4-methoxypyrimidin-2-yl)methyl]-5,6,7,8-tetrahydro-1,7-naphthyridine-2-carboxamide]"
8,31 nM,"CC1(CN2CCc3c(-c4ccc(Cl)cc4F)cc(C(N)=O)nc3C2)COC1 [Example 10-1, 4-(4-chloro-2-fluorophenyl)-7-((3-methyloxetan-3-yl)methyl)-5,6,7,8-tetrahydro-1,7-naphthyridine-2-carboxamide]"
9,7.4 nM,"COc1ncc(CN2CCc3c(-c4ccc(Cl)cc4F)cc(C(N)=O)nc3C2)cn1 [Example 10-2, 4-(4-chloro-2-fluorophenyl)-7-[(2-methoxypyrimidin-5-yl)methyl]-5,6,7,8-tetrahydro-1,7-naphthyridine-2-carboxamide]"
10,12 nM,"NC(=O)c1cc(-c2ccc(Cl)cc2F)c2c(n1)CN(Cc1cccnc1)CC2 [Example 10-3, 4-(4-chloro-2-fluorophenyl)-7-(pyridin-3-ylmethyl)-5,6,7,8-tetrahydro-1,7-naphthyridine-2-carboxamide]"
11,14.6 nM,"Cn1cc(CN2CCc3c(-c4ccc(Cl)cc4F)cc(C(N)=O)nc3C2)cn1 [Example 10-4, 4-(4-chloro-2-fluorophenyl)-7-[(1-methyl-1H-pyrazol-4-yl)methyl]-5,6,7,8-tetrahydro-1,7-naphthyridine-2-carboxamide]"
12,25.8 nM,"NC(=O)c1cc(-c2c(F)cccc2F)c2c(n1)CN(Cc1ccnc(C(F)(F)F)n1)CC2 [Example 11-1, 4-(2,6-Difluorophenyl)-7-((2-(trifluoromethyl)pyrimidin-4-yl)methyl)-5,6,7,8-tetrahydro-1,7-naphthyridine-2-carboxamide]"
13,52.1 nM,"NC(=O)c1cc(-c2cc(F)ccc2F)c2c(n1)CN(Cc1ccnc(C(F)(F)F)n1)CC2 [Example 11-2, 4-(2,5-difluorophenyl)-7-{[2-(trifluoromethyl)pyrimidin-4-yl]methyl}-5,6,7,8-tetrahydro-1,7-naphthyridine-2-carboxamide]"
14,7.2 nM,"NC(=O)c1cc(-c2ccc(Cl)cc2F)c2c(n1)CN(Cc1ccnc(C(F)(F)F)n1)CC2 [Example 11-3, 4-(4-chloro-2-fluorophenyl)-7-{[2-(trifluoromethyl)pyrimidin-4-yl]methyl}-5,6,7,8-tetrahydro-1,7-naphthyridine-2-carboxamide]"
15,19.7 nM,"NC(=O)c1cc(-c2ccccc2Cl)c2c(n1)CN(Cc1ccnc(C(F)(F)F)n1)CC2 [Example 11-4, 4-(2-chlorophenyl)-7-{[2-(trifluoromethyl)pyrimidin-4-yl]methyl}-5,6,7,8-tetrahydro-1,7-naphthyridine-2-carboxamide]"
16,17.6 nM,"NC(=O)c1cc(-c2ccc(F)cc2Cl)c2c(n1)CN(Cc1ccnc(C(F)(F)F)n1)CC2 [Example 11-5, 4-(2-chloro-4-fluorophenyl)-7-{[2-(trifluoromethyl)pyrimidin-4-yl]methyl}-5,6,7,8-tetrahydro-1,7-naphthyridine-2-carboxamide]"
